Reference: article PMC11277439, “The role of lysosomal phospholipase A2 in the catabolism of bis(monoacylglycerol)phosphate and association with phospholipidosis” (Journal of Lipid Research, 2024)

Molecular target: T1, recombinant human LPLA2 (hLPLA2) (Homo sapiens, UniProt Q8NCC3)
T1 construct: gene PLA2G15; recombinant human enzyme from Proteos
T1 sequence (Q8NCC3 34-412): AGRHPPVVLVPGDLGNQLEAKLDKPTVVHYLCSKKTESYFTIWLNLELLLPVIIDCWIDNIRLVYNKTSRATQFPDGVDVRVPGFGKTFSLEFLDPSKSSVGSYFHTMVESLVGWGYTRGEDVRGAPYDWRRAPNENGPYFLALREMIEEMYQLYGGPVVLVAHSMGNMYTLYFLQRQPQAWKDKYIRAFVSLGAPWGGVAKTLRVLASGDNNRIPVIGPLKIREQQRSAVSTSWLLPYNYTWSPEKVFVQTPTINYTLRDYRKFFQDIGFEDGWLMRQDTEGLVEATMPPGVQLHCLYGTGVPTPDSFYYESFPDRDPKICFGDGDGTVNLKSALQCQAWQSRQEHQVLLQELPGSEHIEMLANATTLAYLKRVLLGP
Assay: oleic acid release from liposomes, HPTLC
Format: biochemical
Conditions: DODPC/S,S-(3,3′,C18:1)-BMP liposomes (2.3:1), 50 mM sodium acetate pH 4.5, 37°C, 5 min pre-incubation of drug with liposomes; read-out: Lipase Inhibition IC50 μM (BMP)^g
From the text: oleic acid release from liposomes, HPTLC on recombinant human LPLA2 (hLPLA2)

| IC50 [µM] | SMILES |
| --- | --- |
| 28.7 | CC[C@H](NC(=O)c1c(C)c(-c2ccccc2)nc2ccccc12)c1ccccc1 [SB222200, 3-methyl-2-phenyl-N-[(1S)-1-phenylpropyl]quinoline-4-carboxamide] |
| 18 | CCCCc1oc2ccccc2c1C(=O)c1cc(I)c(OCCN(CC)CC)c(I)c1 [amiodarone, (2-butyl-1-benzofuran-3-yl)-[4-[2-(diethylamino)ethoxy]-3,5-diiodophenyl]methanone] |
| 24 | CCOC(=O)C1=C(COCCN)NC(C)=C(C(=O)OC)C1c1ccccc1Cl (stereo not drawn) [amlodipine, 3-O-ethyl 5-O-methyl 2-(2-aminoethoxymethyl)-4-(2-chlorophenyl)-6-methyl-1,4-dihydropyridine-3,5-dicarboxylate] |
| 16 | CC(C)(C)c1ccc(CN2CCN(C(c3ccccc3)c3ccc(Cl)cc3)CC2)cc1 (stereo not drawn) [buclizine, 1-[(4-tert-butylphenyl)methyl]-4-[(4-chlorophenyl)-phenylmethyl]piperazine] |
| 34.7 | COc1ccccc1OCCNCC(O)COc1cccc2[nH]c3ccccc3c12 (stereo not drawn) [carvedilol, 1-(9H-carbazol-4-yloxy)-3-[2-(2-methoxyphenoxy)ethylamino]propan-2-ol] |
| 9.7 | CN(C)CCCN1c2ccccc2Sc2ccc(Cl)cc21 [chlorpromazine, 3-(2-chlorophenothiazin-10-yl)-N,N-dimethylpropan-1-amine] |
| 13.2 | CN(C)CCC=C1c2ccccc2C=Cc2ccccc21 [cyclobenzaprine, N,N-dimethyl-3-(2-tricyclo[9.4.0.03,8]pentadeca-1(15),3,5,7,9,11,13-heptaenylidene)propan-1-amine] |
| 0.849 | CCC(=O)O[C@@H](O[P@](=O)(CCCCc1ccccc1)CC(=O)N1C[C@H](C2CCCCC2)C[C@H]1C(=O)O)C(C)C [fosinopril, (2S,4S)-4-cyclohexyl-1-[2-[(2-methyl-1-propanoyloxypropoxy)-(4-phenylbutyl)phosphoryl]acetyl]pyrrolidine-2-carboxylic acid] |
| 39.9 | O=C(O)[C@@H]1C[C@@H](C2CCCCC2)CN1C(=O)CP(=O)(O)CCCCc1ccccc1 [fosinoprilat, (2S,4S)-4-cyclohexyl-1-{2-[hydroxy(4-phenylbutyl)phosphoryl]acetyl}pyrrolidine-2-carboxylic acid] |
| 18.5 | C[C@]12CC[C@@H]3c4ccc(O)cc4C[C@@H](CCCCCCCCC[S+]([O-])CCCC(F)(F)C(F)(F)F)[C@H]3[C@@H]1CC[C@@H]2O (stereo partly drawn) [fulvestrant, (7R,8R,9S,13S,14S,17S)-13-methyl-7-[9-(4,4,5,5,5-pentafluoropentylsulfinyl)nonyl]-6,7,8,9,11,12,14,15,16,17-decahydrocyclopenta[a]phenanthrene-3,17-diol] |
| 41.7 | CN(CCCN1c2ccccc2CCc2ccccc21)CC(=O)c1ccc(Cl)cc1 [lofrepramine, 1-(4-chlorophenyl)-2-[3-(5,6-dihydrobenzo[b][1]benzazepin-11-yl)propyl-methylamino]ethanone] |
| 21.8 | CCOC(=O)N1CCC(=C2c3ccc(Cl)cc3CCc3cccnc32)CC1 [loratadine, ethyl 4-{13-chloro-4-azatricyclo [9.4.0.03, 8]pentadeca1(11),3(8), 4,6,12,14-hexaen-2-ylidene}piperidine-1-carboxylate] |
| 31.1 | C1CCC(C(CC2CCCCN2)C2CCCCC2)CC1 (stereo not drawn) [perhexiline, 2-(2,2-dicyclohexylethyl) piperidine] |
| 40.9 | CCN(CC)C(C)CN1c2ccccc2Sc2ccccc21 (stereo not drawn) [profenamine, N,N-diethyl-1-phenothiazin-10-ylpropan-2-amine] |
| 45.8 | CC(C)NCC(O)COc1cccc2ccccc12 (stereo not drawn) [propranolol, 1-(naphthalen-1-yloxy)-3-[(propan-2-yl)amino] propan-2-ol] |
| 50.6 | O=C(c1ccc(OCCN2CCCCC2)cc1)c1c(-c2ccc(O)cc2)sc2cc(O)ccc12 [raloxifene, [6-hydroxy-2-(4-hydroxyphenyl)-1-benzothiophen-3-yl]-[4-(2-piperidin-1-ylethoxy)phenyl]methanone] |
| 20.9 | NCC[C@H](Oc1ccc(C(F)(F)F)cc1)c1ccccc1 [seproxitine, (3S)-3-phenyl-3-[4-(trifluoromethyl)phenoxy]propan-1-amine] |
| 20.1 | CC/C(=C(\c1ccccc1)c1ccc(OCCN(C)C)cc1)c1ccccc1 [tamoxifen] |
